Measurements: patent publication US4544747A, “Quinoline carboxylic acid derivatives” (Otsuka Pharmaceutical Company, Limited, priority 1979, dated 1985)
Values after ≈ are worked out from the molar mass of the structure shown.

Key:
rats = test: Acute toxicity test, oral, rats; conditions: rats (Wister strain, male)
Pyrisularia oryzae = test: microbe, parasite or virus in culture; assay type: cell-based; conditions: Pyricularia oryzae, 48 h, read-out: Minimum inhibitory concentration
Xanthomonas pruni = test: Antimicrobial-activity test 2, agar dilution plate method, bacteria (C: peach bacterial spot); assay type: cell-based; conditions: Xanthomonas arboricola, 10^8 cells/ml, PDA medium, read-out: Minimum inhibitory concentration
Text: C: Peach bacterial spot (Xanthomonas pruni)

Alternaria solani = test: Antimicrobial-activity test 2, mycelial disc on agar plate, fungi (N: early blight of tomato); assay type: cell-based; conditions: 48 h, complete inhibition of mycelial growth, 2 days, PDA medium, read-out: Minimum inhibitory concentration
Text: N: Early blight of tomato (Alternaria solani)

Phytophthora capsici = test: Antimicrobial-activity test 2, mycelial disc on agar plate, fungi (J: leaf blight of cucumber); assay type: cell-based; conditions: 48 h, complete inhibition of mycelial growth, 2 days, PDA medium, read-out: Minimum inhibitory concentration
Text: J: Leaf blight of cucumber (Phytophthora capsici)

Xanthomonas citri = test: Antimicrobial-activity test 2, agar dilution plate method, bacteria (D: citrus canker); conditions: read-out: Minimum inhibitory concentration
Erwinia carotovora = test: Antimicrobial-activity test 2, agar dilution plate method, bacteria (A: soft rot of vegetable); assay type: cell-based; conditions: Pectobacterium carotovorum, 10^8 cells/ml, PDA medium, read-out: Minimum inhibitory concentration
Text: A: Soft rot of vegetable (Erwinia carotovora)

Pseudomonas solanacearum = test: microbe, parasite or virus in culture; assay type: cell-based; conditions: Ralstonia solanacearum, read-out: Minimum inhibitory concentration
Phytophthora melonis = test: microbe, parasite or virus in culture; assay type: cell-based; conditions: 48 h, read-out: Minimum inhibitory concentration
Helminthosporium oryzae = test: Antimicrobial-activity test 2, mycelial disc on agar plate, fungi (H: Helminthosporium leaf spot); conditions: Bipolaris oryzae, 48 h, read-out: Minimum inhibitory concentration
[1] = system: Colletotrichum lagenarium; test: Antimicrobial-activity test 2, mycelial disc on agar plate, fungi (K: anthracnose of cucumber); assay type: cell-based; conditions: Colletotrichum orbiculare, 48 h, complete inhibition of mycelial growth, 2 days, PDA medium, read-out: Minimum inhibitory concentration
Text: K: Anthracnose of cucumber (Colletotrichum lagenarium)

Mycosphaerella melonis = test: Antimicrobial-activity test 2, mycelial disc on agar plate, fungi (M: gummy stem blight of melon); assay type: cell-based; conditions: 48 h, complete inhibition of mycelial growth, 2 days, PDA medium, read-out: Minimum inhibitory concentration
Text: […] blight of melon (Mycosphaerella melonis)

Xanthomonas oryzae = test: microbe, parasite or virus in culture; assay type: cell-based; conditions: read-out: Minimum inhibitory concentration
Pseudomonas lachrymans = test: Antimicrobial-activity test 2, agar dilution plate method, bacteria (F: angular leaf spot of cucumber); assay type: cell-based; conditions: 10^8 cells/ml, PDA medium, read-out: Minimum inhibitory concentration
Text: F: Angular leaf spot of cucumber (Pseudomonas lachrymans)

[2] = system: Erwinia carotovora (soft-rot causing bacterium); test: Antimicrobial-activity test 3, incidence of soft rot on inoculated Japanese radish disks; conditions: 28° C.
Sclerotinia sclerotiorum = test: Antimicrobial-activity test 2, mycelial disc on agar plate, fungi (L: stem rot of eggplant); assay type: cell-based; conditions: 48 h, complete inhibition of mycelial growth, 2 days, PDA medium, read-out: Minimum inhibitory concentration
Text: L: Stem rot of eggplant (Sclerotinia sclerotiorum)

[3] = 15.6 μg/ml, test specimen 1, 24 hours
[4] = 15.6 μg/ml, test specimen 2, 24 hours
[5] = 15.6 μg/ml, test specimen 3, 24 hours
[6] = 15.6 μg/ml, test specimen 4, 24 hours
[7] = 15.6 μg/ml, test specimen 5, 24 hours
[8] = 31.3 μg/ml, test specimen 1, 24 hours
[9] = 31.3 μg/ml, test specimen 2, 24 hours
[10] = 31.3 μg/ml, test specimen 3, 24 hours
[11] = 31.3 μg/ml, test specimen 4, 24 hours
[12] = 31.3 μg/ml, test specimen 5, 24 hours
[13] = 62.5 μg/ml, test specimen 1, 24 hours
[14] = 62.5 μg/ml, test specimen 2, 24 hours
[15] = 62.5 μg/ml, test specimen 3, 24 hours
[16] = 62.5 μg/ml, test specimen 4, 24 hours
[17] = 62.5 μg/ml, test specimen 5, 24 hours
[18] = 125 μg/ml, test specimen 1, 24 hours
[19] = 125 μg/ml, test specimen 2, 24 hours
[20] = 125 μg/ml, test specimen 3, 24 hours
[21] = 125 μg/ml, test specimen 4, 24 hours
[22] = 125 μg/ml, test specimen 5, 24 hours

Compound | estimated LD50 (rats) | Disease incidence index [2, 3] | Disease incidence index [2, 4] | Disease incidence index [2, 5] | Disease incidence index [2, 6] | Disease incidence index [2, 7] | Disease incidence index [2, 8] | Disease incidence index [2, 9] | Disease incidence index [2, 10] | Disease incidence index [2, 11] | Disease incidence index [2, 12] | Disease incidence index [2, 13] | Disease incidence index [2, 14] | Disease incidence index [2, 15] | Disease incidence index [2, 16] | Disease incidence index [2, 17] | Disease incidence index [2, 18] | Disease incidence index [2, 19] | Disease incidence index [2, 20] | Disease incidence index [2, 21] | also measured
CCn1cc(C(=O)O)c(=O)c2ccc(N3CCNCC3)c(C)c21 [Compound 1, 1-Ethyl-7-(1-piperazinyl)-8-methyl-4-oxo-1,4-dihydroquinoline-3-carboxylic acid] | not less than 500 mg/kg | – | – | – | – | – | – | – | – | – | – | – | – | – | – | – | – | – | – | – | –
CCn1cc(C(=O)O)c(=O)c2ccc(Cl)c(C)c21 [Compound 2, 1-ethyl-7-chloro-8-methyl-4-oxo-1,4-dihydroquinoline-3-carboxylic acid] | not less than 500 mg/kg | 0 (0) | 1 (0< ≤1/3) | 1 (0< ≤1/3) | 1 (0< ≤1/3) | 1 (0< ≤1/3) | 0 (0) | 0 (0) | 0 (0) | 1 (0< ≤1/3) | 1 (0< ≤1/3) | 0 (0) | 0 (0) | 0 (0) | 0 (0) | 1 (0< ≤1/3) | 0 (0) | 0 (0) | 0 (0) | 0 (0) | MIC (Pyrisularia oryzae): 50 µg/mL (≈ 188 µM); MIC (Xanthomonas pruni): 0.4 µg/mL (≈ 1.51 µM); MIC (Alternaria solani): 50 µg/mL (≈ 188 µM); MIC (Phytophthora capsici): 25 µg/mL (≈ 94.1 µM); MIC (Xanthomonas citri): 0.1 µg/mL (≈ 0.376 µM); MIC (Erwinia carotovora): 0.2 µg/mL (≈ 0.753 µM); MIC (Pseudomonas solanacearum): 0.1 µg/mL (≈ 0.376 µM); MIC (Phytophthora melonis): 12.5 µg/mL (≈ 47 µM); MIC (Helminthosporium oryzae): 50 µg/mL (≈ 188 µM); MIC [1]: 100 µg/mL (≈ 376 µM); MIC (Mycosphaerella melonis): 50 µg/mL (≈ 188 µM); MIC (Xanthomonas oryzae): 0.2 µg/mL (≈ 0.753 µM); MIC (Pseudomonas lachrymans): 100 µg/mL (≈ 376 µM); Disease incidence index [2, 22]: 1 (0< ≤1/3); MIC (Sclerotinia sclerotiorum): 100 µg/mL (≈ 376 µM)
[H]/N=C(/N)N[C@H]1[C@H](O)[C@@H](O)[C@H](O[C@@H]2O[C@@H](C)[C@](O)(C=O)[C@H]2O[C@@H]2O[C@@H](CO)[C@H](O)[C@@H](O)[C@@H]2NC)[C@@H](N/C(N)=N\[H])[C@@H]1O [Streptomycin, reference compound] | – | 3 | 3 | 3 | 3 | 3 | 2 | 2 | 3 | 3 | 3 | 1 (0< ≤1/3) | 1 (0< ≤1/3) | 2 | 2 | 2 | 1 (0< ≤1/3) | 1 (0< ≤1/3) | 1 (0< ≤1/3) | 1 (0< ≤1/3) | Disease incidence index [2, 22]: 1 (0< ≤1/3)
